Columns and labels:
[1] = molecular target: T1, Serine/threonine-protein kinase ULK1 (Homo sapiens) (UniProt O75385); experiment: Inhibition of human ULK1 at 500 nM by HotSpot assay relative to control
T1 sequence (whole entry): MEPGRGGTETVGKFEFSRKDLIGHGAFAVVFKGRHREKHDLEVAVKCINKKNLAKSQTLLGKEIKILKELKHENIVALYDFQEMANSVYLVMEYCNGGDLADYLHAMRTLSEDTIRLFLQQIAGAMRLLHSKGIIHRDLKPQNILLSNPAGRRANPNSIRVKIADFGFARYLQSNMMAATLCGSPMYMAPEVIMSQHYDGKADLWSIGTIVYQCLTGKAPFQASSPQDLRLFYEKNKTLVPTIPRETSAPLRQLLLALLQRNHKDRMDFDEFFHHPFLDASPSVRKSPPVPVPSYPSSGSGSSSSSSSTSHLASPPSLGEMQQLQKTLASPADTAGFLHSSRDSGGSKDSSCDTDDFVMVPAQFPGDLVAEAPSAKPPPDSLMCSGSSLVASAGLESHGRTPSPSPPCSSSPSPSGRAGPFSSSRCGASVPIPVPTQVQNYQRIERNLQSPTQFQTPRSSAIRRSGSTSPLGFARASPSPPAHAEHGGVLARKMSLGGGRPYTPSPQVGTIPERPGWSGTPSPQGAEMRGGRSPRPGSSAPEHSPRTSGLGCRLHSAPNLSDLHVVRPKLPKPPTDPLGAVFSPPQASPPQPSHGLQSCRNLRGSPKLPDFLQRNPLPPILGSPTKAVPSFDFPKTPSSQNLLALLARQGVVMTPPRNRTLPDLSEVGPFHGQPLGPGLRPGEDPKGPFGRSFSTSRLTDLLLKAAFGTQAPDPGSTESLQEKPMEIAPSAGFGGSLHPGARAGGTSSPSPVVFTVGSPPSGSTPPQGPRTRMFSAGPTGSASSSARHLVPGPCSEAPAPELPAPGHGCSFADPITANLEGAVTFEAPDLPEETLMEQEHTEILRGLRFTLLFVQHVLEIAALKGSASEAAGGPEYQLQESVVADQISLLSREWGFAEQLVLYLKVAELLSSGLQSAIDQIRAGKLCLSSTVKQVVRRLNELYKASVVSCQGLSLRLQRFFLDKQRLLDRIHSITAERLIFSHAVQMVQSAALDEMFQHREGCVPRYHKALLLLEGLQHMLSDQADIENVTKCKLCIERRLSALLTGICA

[2] = molecular target: Serine/threonine-protein kinase Nek6 (Homo sapiens) (UniProt Q9HC98); experiment: Inhibition of human NEK6 at 500 nM by HotSpot assay relative to control
[3] = molecular target: LIM domain kinase 1 (Homo sapiens) (UniProt P53667); experiment: Inhibition of human LIMK1 at 500 nM by HotSpot assay relative to control
[4] = molecular target: T2, Serine/threonine-protein kinase haspin (Homo sapiens) (UniProt Q8TF76); experiment: Inhibition of human Haspin at 500 nM by HotSpot assay relative to control
T2 sequence (whole entry): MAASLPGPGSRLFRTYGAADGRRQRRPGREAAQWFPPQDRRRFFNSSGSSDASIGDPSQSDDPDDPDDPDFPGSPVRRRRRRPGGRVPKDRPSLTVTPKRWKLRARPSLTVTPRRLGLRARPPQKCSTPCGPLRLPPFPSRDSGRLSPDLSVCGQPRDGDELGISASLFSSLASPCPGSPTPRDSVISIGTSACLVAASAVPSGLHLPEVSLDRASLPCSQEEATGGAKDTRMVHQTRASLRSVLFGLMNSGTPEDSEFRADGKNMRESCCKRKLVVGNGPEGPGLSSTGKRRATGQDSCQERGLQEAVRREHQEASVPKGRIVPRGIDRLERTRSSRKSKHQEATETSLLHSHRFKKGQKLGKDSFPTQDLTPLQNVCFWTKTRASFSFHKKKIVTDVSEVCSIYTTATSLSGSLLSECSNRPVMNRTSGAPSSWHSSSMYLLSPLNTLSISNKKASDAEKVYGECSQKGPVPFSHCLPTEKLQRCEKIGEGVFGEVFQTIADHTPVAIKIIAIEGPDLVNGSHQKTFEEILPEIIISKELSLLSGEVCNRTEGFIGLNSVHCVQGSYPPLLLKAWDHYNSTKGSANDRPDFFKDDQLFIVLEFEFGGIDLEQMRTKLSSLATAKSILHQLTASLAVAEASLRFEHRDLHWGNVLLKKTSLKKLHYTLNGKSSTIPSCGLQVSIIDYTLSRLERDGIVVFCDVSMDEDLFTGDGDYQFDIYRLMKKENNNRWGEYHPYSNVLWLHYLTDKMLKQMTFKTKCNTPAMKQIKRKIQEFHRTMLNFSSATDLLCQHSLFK

[5] = molecular target: Tyrosine-protein kinase JAK1 (Homo sapiens) (UniProt P23458); experiment: Inhibition of human JAK1 at 500 nM by HotSpot assay relative to control
[6] = molecular target: T3, Serine/threonine-protein kinase DCLK2 (Homo sapiens) (UniProt Q8N568); experiment: Inhibition of human DCAMKL2 at 500 nM by HotSpot assay relative to control
T3 sequence (whole entry): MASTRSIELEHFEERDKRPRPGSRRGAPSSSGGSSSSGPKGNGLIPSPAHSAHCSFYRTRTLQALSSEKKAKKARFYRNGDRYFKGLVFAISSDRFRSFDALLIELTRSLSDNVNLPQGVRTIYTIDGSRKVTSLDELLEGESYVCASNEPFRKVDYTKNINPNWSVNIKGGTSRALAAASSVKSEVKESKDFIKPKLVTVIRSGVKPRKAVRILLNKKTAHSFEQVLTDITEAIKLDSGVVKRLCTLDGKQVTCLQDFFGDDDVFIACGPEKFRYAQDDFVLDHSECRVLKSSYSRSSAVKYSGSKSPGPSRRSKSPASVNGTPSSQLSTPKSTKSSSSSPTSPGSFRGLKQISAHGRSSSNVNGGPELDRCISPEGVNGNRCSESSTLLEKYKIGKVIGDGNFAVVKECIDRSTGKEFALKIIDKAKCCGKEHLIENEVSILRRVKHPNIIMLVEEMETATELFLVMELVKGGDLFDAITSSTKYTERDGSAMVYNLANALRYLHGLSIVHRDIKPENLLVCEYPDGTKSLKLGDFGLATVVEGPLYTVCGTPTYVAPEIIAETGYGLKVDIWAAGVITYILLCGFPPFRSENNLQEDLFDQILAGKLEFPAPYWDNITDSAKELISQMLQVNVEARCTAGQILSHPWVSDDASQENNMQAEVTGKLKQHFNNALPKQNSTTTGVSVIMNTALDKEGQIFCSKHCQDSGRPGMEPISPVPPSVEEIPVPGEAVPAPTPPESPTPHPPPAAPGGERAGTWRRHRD

[7] = molecular target: Ribosomal protein S6 kinase alpha-4 (Homo sapiens) (UniProt O75676); experiment: Inhibition of human RPS6KA4 at 500 nM by HotSpot assay relative to control
[8] = molecular target: Ribosomal protein S6 kinase alpha-3 (Homo sapiens) (UniProt P51812); experiment: Inhibition of human RSK2 at 500 nM by HotSpot assay relative to control
Ribosomal protein S6 kinase alpha-3 (Homo sapiens), sequence (P51812 whole entry): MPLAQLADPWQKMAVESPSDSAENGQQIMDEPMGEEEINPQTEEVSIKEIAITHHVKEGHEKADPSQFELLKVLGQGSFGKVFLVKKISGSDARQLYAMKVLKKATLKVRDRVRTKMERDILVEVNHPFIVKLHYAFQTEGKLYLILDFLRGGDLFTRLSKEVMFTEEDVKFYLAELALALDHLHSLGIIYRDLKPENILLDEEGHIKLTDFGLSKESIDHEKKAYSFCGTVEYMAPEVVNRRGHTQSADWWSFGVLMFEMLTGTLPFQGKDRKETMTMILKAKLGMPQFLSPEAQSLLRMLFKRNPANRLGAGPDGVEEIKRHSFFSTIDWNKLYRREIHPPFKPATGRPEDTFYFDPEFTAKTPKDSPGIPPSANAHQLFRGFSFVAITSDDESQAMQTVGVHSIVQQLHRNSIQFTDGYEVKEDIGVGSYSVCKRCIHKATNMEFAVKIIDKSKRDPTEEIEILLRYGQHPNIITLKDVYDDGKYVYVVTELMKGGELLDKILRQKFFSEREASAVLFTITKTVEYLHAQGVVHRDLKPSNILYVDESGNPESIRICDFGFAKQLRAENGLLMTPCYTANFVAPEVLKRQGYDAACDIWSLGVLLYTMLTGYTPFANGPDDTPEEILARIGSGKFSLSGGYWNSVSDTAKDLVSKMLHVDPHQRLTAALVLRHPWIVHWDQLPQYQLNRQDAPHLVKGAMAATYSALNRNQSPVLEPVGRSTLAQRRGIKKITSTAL

Serine/threonine-protein kinase Nek6 (Homo sapiens), sequence (Q9HC98 whole entry, the tested form may be a part): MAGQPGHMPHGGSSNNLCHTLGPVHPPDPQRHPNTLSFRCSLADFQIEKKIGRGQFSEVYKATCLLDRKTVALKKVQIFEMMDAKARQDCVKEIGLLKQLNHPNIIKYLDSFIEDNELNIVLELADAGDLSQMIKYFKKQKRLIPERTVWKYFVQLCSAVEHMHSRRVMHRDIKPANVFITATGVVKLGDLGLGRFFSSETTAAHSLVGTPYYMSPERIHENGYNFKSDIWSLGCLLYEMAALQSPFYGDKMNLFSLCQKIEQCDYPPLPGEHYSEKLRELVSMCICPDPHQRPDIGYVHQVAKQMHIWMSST
Tyrosine-protein kinase JAK1 (Homo sapiens), sequence (P23458 whole entry): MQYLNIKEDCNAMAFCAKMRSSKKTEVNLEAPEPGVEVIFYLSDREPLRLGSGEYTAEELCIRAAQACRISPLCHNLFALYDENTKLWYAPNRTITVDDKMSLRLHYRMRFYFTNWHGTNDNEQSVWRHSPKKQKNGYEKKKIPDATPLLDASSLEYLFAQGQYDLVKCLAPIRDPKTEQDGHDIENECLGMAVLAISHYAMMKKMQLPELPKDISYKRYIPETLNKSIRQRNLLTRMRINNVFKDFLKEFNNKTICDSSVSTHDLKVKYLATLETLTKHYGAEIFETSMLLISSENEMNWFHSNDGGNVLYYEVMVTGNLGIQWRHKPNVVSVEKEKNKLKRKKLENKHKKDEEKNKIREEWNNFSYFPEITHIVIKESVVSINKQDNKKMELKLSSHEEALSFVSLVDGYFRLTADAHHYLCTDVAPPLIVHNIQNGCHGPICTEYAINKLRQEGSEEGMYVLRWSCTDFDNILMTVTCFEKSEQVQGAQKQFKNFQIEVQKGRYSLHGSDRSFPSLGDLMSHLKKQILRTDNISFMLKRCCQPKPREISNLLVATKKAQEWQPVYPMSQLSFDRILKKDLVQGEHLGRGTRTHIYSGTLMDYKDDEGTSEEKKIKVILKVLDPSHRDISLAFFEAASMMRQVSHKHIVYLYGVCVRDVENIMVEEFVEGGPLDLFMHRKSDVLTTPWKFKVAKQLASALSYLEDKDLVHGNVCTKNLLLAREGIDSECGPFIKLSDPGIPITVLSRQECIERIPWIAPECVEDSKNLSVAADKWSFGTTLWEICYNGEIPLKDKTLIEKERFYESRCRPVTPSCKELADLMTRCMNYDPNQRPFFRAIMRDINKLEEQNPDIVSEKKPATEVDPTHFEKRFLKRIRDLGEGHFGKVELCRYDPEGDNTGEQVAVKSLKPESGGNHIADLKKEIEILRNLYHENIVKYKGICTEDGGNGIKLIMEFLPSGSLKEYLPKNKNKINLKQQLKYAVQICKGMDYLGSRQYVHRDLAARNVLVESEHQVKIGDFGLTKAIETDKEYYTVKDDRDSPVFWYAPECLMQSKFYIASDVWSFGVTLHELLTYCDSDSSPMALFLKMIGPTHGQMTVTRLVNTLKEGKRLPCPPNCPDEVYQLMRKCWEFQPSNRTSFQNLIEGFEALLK
LIM domain kinase 1 (Homo sapiens), sequence (P53667 whole entry, looked up, the tested form may be a part): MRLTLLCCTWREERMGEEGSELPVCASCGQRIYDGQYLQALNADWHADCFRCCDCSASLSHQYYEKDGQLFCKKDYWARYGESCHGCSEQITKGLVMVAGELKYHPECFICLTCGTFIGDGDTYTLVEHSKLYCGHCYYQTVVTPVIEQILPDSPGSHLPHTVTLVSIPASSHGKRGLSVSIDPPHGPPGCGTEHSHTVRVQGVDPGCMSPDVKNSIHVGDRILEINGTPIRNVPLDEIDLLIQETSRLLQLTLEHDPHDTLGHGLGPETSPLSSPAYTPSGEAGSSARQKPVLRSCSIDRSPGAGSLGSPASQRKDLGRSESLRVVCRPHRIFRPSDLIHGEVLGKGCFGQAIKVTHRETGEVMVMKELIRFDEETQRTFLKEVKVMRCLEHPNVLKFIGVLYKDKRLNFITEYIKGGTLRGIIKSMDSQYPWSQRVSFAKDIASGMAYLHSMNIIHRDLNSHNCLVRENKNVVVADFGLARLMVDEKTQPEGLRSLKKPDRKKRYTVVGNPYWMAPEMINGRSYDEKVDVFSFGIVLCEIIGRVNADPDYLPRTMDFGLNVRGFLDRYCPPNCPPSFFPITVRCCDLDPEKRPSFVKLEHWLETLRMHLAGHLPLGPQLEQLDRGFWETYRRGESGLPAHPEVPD
Ribosomal protein S6 kinase alpha-4 (Homo sapiens), sequence (O75676 whole entry, looked up): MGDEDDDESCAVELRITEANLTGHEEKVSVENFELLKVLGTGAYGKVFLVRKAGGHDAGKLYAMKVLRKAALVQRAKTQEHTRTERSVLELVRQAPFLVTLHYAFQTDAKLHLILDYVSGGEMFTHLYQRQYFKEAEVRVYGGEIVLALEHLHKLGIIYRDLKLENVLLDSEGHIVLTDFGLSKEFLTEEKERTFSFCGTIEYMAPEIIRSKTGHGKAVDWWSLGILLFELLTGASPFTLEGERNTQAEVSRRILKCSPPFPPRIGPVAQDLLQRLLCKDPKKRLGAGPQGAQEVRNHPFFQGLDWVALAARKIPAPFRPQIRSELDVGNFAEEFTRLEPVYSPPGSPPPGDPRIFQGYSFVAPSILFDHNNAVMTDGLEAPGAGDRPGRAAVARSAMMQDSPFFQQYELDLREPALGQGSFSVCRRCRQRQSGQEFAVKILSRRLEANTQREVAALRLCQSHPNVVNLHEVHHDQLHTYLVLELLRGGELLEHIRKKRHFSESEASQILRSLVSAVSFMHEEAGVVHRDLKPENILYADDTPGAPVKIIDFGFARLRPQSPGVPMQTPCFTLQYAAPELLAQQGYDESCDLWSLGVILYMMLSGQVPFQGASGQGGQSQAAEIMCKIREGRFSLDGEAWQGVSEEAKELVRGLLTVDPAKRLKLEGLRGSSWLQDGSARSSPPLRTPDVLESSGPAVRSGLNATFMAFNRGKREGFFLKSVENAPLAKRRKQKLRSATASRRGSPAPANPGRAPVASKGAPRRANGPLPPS

Oc1n[nH]c2nnc(-c3c(-c4ccccc4)nn4ccccc34)cc12
inhibition [1]: 0.87% | inhibition [2]: 3.5% | inhibition [3]: -1.82% | inhibition [4]: 11.6% | inhibition [5]: -1.98% | inhibition [6]: 0.11% | inhibition [7]: 1.99% | inhibition [8]: -2.36%

Nc1n[nH]c2nnc(-c3c(-c4ccccc4)nn4ccccc34)cc12
inhibition [1]: 2.87% | inhibition [2]: 4.45% | inhibition [3]: 1.81% | inhibition [4]: 2.91% | inhibition [5]: -3.59% | inhibition [6]: -0.33% | inhibition [7]: 5.31% | inhibition [8]: 1.29%

— ChEMBL document CHEMBL5653615 (J Biol Chem, 2013)
